Columns and labels:
Type in all cases: biochemical
[1] = target: plasmin (Plm) (Homo sapiens, UniProt P00747); test: Fluorogenic enzyme assay (Example 5); details: 10 nM enzyme, substrate 1 μM
Summary of the method: (§1)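 Kinetic constants (Km, kcat) of substrate hydrolysis are derived by fitting initial rates to the Michaelis-Menten equation. Assays use TBS at pH 7.4 and 22° C, with fluorescence of the released naphthalenesulfonamide fluorophore recorded at 352/470 nm.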

[2] = target: urokinase (u-PA) (Homo sapiens, UniProt P00749); test: Fluorogenic enzyme assay (Example 5); details: 100 nM enzyme, substrate 1 μM
[3] = target: tissue plasminogen activator (t-PA) (Homo sapiens, UniProt P00750); test: Fluorogenic enzyme assay (Example 5); details: 100 nM enzyme, substrate 1 μM
Summary of the method: as §1

[4] = target: T1, VIIa/TF/PCPS/Ca^2+ (Homo sapiens, UniProt P08709); test: Fluorogenic factor VIIa assay (Example 6); details: HBS, 37° C., 0.5 nM rVIIa
T1 construct: directly measure the enzymatic activity of factor VIIa in the presence and absence of tissue factor and phospholipid
Experimental: (§2) Factor VII assays were conducted in 20 mM HEPES, 150 mM NaCl, 5 mM CaCl2, pH 7.4 (HBS) at 37° C. The final volume for all reactions was 1.6 ml. 6-(Mes-D-Leu-Gly-Arg)amino-1-(N,N-diethyl)naphthalenesulfonamide was dissolved in DMSO to a stock concentration of 10 mM. This 10 mM stock solution of was diluted in HBS to final working concentration prior to all assays. For reactions involving tissue factor (TF) and phospholipid vesicles, recombinant human tissue factor was solubilized in either 0.04% n-dodecyl octaethylene glycol (C12 E8) or 0.8% octyl glucoside. The TF/n-dodecyl octaethylene glycol was then relipidated into PCPS or PC vesicles by a 30 minute incubation step as described by Lawson & Mann, J. Biol. Chem. 266: 11317-11327 (1991). TF/octyl glucoside was relipidated into PC or PCPS vesicles by a thirty minute incubation step followed by exhaustive dialysis. The final concentration of tissue factor used in the studies described here ranged from 2 to 50 nM depending on the nature of the experiment.
(§3) Fifteen minutes prior to the start of all reactions factor VIIa was added to the reaction system. This incubation period was followed by the addition of substrate (1 μM to 400 μM) to the mixture to start the reaction. In experiments designed to determine kinetic constants of substrate hydrolysis, 50 nM rVIIa was used when no tissue factor was present in the reaction system, while 0.5 nM rVIIa was used when tissue factor was present in the reaction system. The rate of substrate hydrolysis was measured by change in fluorescence over time, which corresponded with the generation of the 6-amino-1-(N,N-diethyl)naphthalenesulfonamide from the provided substrate. The kinetic constants of 6-(Mes-D-Leu-Gly-Arg)amino-1-(N,N-diethyl)naphthalenesulfonamide hydrolysis as a function of factor VIIa/tissue factor complex assembly are shown in Table 10.

[5] = target: T2, VIIa/PCPS/Ca^2+ (Homo sapiens, UniProt P08709); test: Fluorogenic factor VIIa assay (Example 6); details: HBS, 37° C., 50 nM rVIIa
T2 construct: directly measure the enzymatic activity of factor VIIa in the presence and absence of tissue factor and phospholipid
T2 sequence (P08709 213-466 limits assumed): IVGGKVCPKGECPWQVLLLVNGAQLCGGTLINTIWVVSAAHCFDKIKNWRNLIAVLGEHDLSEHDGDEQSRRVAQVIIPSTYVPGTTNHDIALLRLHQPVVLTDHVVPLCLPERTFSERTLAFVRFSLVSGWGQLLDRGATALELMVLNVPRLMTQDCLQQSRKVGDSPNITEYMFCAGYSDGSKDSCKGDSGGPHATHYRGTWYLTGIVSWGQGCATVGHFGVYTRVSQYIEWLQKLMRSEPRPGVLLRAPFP
T2 sequence (P08709 61-212 limits assumed): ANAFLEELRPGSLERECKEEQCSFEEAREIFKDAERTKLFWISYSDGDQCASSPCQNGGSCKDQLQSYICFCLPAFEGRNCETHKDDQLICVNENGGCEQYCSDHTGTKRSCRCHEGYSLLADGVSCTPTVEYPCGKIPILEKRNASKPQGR
Experimental: as §2, §3

[6] = target: T3, VIIa/TF/PC/CA^2+ (Homo sapiens, UniProt P08709); test: Fluorogenic factor VIIa assay (Example 6); details: HBS, 37° C., 0.5 nM rVIIa
T3 construct: directly measure the enzymatic activity of factor VIIa in the presence and absence of tissue factor and phospholipid
Experimental: as §2, §3

[7] = target: T4, VIIa/Ca^2+ (Homo sapiens, UniProt P08709); test: Fluorogenic factor VIIa assay (Example 6); details: HBS, 37° C., 50 nM rVIIa
T4 construct: directly measure the enzymatic activity of factor VIIa in the presence and absence of tissue factor and phospholipid
T4 sequence (P08709 213-466 limits assumed): T2 sequence (P08709 213-466 limits assumed)
T4 sequence (P08709 61-212 limits assumed): T2 sequence (P08709 61-212 limits assumed)
Experimental: as §2, §3

[8] = target: T5, thrombin (IIa) (Homo sapiens, UniProt P00734); test: Fluorogenic enzyme assay (Example 5)
T5 construct: 0.5 nM human thrombin (IIa)
Summary of the method: as §1

T3 sequence (P13726 33-295 partner, one chain of several): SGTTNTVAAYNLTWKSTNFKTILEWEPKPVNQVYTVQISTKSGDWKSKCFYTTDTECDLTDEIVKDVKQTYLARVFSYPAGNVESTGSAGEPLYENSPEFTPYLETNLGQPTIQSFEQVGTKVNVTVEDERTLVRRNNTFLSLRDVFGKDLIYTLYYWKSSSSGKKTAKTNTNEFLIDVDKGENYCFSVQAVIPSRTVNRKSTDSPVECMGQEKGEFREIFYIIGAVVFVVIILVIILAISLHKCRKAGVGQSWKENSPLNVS
T1 sequence (P13726 33-295 partner, one chain of several): as above
Chain of plasmin (Plm) (P00747 581-810 limits assumed, species assumed): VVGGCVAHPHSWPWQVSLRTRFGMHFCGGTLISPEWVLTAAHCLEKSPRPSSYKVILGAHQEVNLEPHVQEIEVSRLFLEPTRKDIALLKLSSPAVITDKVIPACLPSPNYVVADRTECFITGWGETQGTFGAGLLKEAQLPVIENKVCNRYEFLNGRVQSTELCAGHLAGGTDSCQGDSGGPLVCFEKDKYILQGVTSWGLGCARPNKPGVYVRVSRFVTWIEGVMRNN
Chain of plasmin (Plm) (P00747 97-580 limits assumed, species assumed): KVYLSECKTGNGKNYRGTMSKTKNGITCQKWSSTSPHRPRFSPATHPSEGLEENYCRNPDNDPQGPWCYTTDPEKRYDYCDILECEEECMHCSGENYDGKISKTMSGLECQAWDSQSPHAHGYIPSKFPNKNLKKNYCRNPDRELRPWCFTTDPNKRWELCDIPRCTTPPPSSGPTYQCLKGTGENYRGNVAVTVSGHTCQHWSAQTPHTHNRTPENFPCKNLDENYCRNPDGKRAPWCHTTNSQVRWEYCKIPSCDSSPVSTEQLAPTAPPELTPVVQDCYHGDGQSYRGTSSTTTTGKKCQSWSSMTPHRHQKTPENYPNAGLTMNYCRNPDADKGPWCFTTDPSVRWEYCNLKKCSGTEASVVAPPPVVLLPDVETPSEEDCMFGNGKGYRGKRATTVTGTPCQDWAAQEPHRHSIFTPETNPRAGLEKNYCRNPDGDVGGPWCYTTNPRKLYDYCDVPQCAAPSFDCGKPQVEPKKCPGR
Chain of tissue plasminogen activator (t-PA) (P00750 36-562, species assumed): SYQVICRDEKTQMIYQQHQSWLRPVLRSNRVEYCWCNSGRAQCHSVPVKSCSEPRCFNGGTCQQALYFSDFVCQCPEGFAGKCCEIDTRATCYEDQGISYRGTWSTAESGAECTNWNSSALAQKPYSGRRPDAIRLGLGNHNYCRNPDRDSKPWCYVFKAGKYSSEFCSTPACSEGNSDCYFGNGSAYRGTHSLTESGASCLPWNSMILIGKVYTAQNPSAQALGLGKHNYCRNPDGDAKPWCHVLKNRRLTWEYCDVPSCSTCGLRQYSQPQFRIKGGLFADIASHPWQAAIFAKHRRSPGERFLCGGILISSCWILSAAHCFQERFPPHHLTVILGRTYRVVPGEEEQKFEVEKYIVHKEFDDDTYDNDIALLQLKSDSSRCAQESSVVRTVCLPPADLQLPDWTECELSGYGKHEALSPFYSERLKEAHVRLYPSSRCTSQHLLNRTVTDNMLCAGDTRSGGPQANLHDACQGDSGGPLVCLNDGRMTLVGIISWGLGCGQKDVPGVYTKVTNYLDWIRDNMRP

With `CCN(CC)S(=O)(=O)c1cccc2cc(NC(=O)[C@H](CCCNC(=N)N)NC(=O)CNC(=O)[C@@H](CC(C)C)NS(C)(=O)=O)ccc12` [MesD-LPR-ANSN(C2 H5)2, 6-(Mes-D-Leu-Gly-Arg)amino-1-(N,N-diethyl)napththalenesulfonamide] the “TIME TO 10% HYDROLYSIS (HOURS), Plm” value [1] was 1 h, the “TIME TO 10% HYDROLYSIS (HOURS), u-PA” value [2] was 2 h and the “TIME TO 10% HYDROLYSIS (HOURS), t-PA” value [3] was 2 h. For the same compound, the “kcat /Km” value [4] was 4166 M^-1 S^-1, the “kcat sec^-1 ± S.E.” value [4] was 0.675 ± 0.046 s⁻¹ and the Km ([4]; read-out: Km μM ± S.E.) was 162 ± 16 µM. For the same compound, the “kcat /Km” value [5] was 32.6 M^-1 S^-1, the “kcat sec^-1 ± S.E.” value [5] was 0.019 ± 0.003 s⁻¹ and the Km ([5]; read-out: Km μM ± S.E.) was 580 ± 101 µM. For the same compound, the “kcat /Km” value [6] was 4206 M^-1 S^-1, the “kcat sec^-1 ± S.E.” value [6] was 0.875 ± 0.032 s⁻¹ and the Km ([6]; read-out: Km μM ± S.E.) was 208 ± 12 µM. For the same compound, the “kcat /Km” value [7] was 41.4 M^-1 S^-1, the “kcat sec^-1 ± S.E.” value [7] was 0.010 ± 0.002 s⁻¹ and the Km ([7]; read-out: Km μM ± S.E.) was 249 ± 88.5 µM. For the same compound, the “TIME TO 10% HYDROLYSIS (HOURS), IIa” value ([8]; 10 nM enzyme, substrate 1 μM) was 0.33 h, the Km ([8]; Table 9) was 31.6 µM and the “kcat /Km, IIa” value ([8]; Table 9) was 20000 M⁻¹ s⁻¹. The “kcat, IIa” value ([8]; Table 9) was 0.63 s⁻¹.
